For series [1] the following is noted: Crystal; DTA.
The nature of series [2]: Molar enthalpy of transition or fusion. The settings on record: Crystal; DSC.

Numbers after ± are expanded uncertainties.

Turning to `CCCCCCCCCCCCCCCCCCCCCCCCCCCCO` [1-octacosanol], in series [1], the Normal melting temperature amounted to 82.8 ± 1.1 °C. Besides, in series [2], the “Molar enthalpy of transition or fusion” value was found to be 108 ± 2.5 kJ/mol.

These data come from the NIST ThermoML archive (doi:10.1016/j.jct.2017.02.025).
